molecular target: T1, PDE 10A (Homo sapiens, UniProt Q9Y233); test: Inhibition of PDE 10A (in vitro enzyme inhibition test); format: biochemical; details: recombinant full-length PDE10A expressed in Sf9 insect cells; substrate [5',8-3H] adenosine 3',5'-cyclic phosphate; 60 min at room temperature; scintillation proximity beads
T1 construct: is expressed recombinantly in full length in Sf9 insect cells; made in house; host or cells: Sf9 insect cells (Bac-to-Bac baculovirus system); lysate supernatant used as the enzyme preparation
Experimental: PDE10A (WO 01/29 199, FIG. 1A) is expressed recombinantly in full length in Sf9 insect cells (Invitrogen, Carlsbad, Calif.) with the aid of the Bac-to-Bac™ Baculovirus expression system of Life Technologies (Gaithersburg, Md.). 48 h after the infection, the cells are harvested and suspended in 20 ml (per 1 l of culture) of lysis buffer (50 mM tris HCl, pH 7.4, 50 mM NaCl, 1 mM MgCl2, 1.5 mM EDTA, 10% glycerol plus 20 μl of Protease Inhibitor Cocktail Set III [CalBiochem, La Jolla, Calif. USA]). The cells are treated at 4° C. for 1 minute with ultrasound and subsequently centrifuged at 10000 rpm for 30 minutes at 4° C. The supernatant (PDE10A preparation) was collected and stored at −20° C.
The test substances are dissolved and serially diluted in 100% DMSO for the determination of their in vitro action on PDE 10A. Typically, dilution series of 200 μM to 1.6 μM are prepared (resulting final concentrations in the test: 4 μM to 0.032 μM). In each case, 2 μl of the diluted substance solutions are introduced into the wells of microtitre plates (Isoplate; Wallac Inc., Atlanta, Ga.). 50 μl of a dilution of the PDE10A preparation described above are subsequently added. The dilution of the PDE10A preparation is chosen such that during the later incubation less than 70% of the substrate is reacted (typical dilution: 1:10000; dilution buffer: 50 mM tris/HCl pH 7.5, 8.3 mM MgCl2, 1.7 mM EDTA, 0.2% BSA). The substrate, [5′,8-^3H] adenosine 3′, 5′-cyclic phosphate (1 μCi/μl; Amersham Pharmacia Biotech., Piscataway, N.J.) is diluted 1:2000 to a concentration of 0.0005 μCi/μl with assay buffer (50 mM tris/HCl pH 7.5, 8.3 mM MgCl2, 1.7 mM EDTA). The enzyme reaction is finally started by addition of 50 μl (0.025 μCi) of the diluted substrate. The test batches are incubated at room temperature for 60 min and the reaction is stopped by addition of 25 μl of a suspension containing 18 mg/ml of Yttrium Scintillation Proximity Beads (Amersham Pharmacia Biotech., Piscataway, N.J.). The microtitre plates are sealed using a film and allowed to stand at room temperature for 60 min. The plates are subsequently measured for 30 s per well in a Microbeta scintillation counter (Wallac Inc., Atlanta, Ga.). IC50 values are determined with the aid of graphic plotting of the substance concentration against the percentage inhibition.

T1 sequence (Q9Y233 1-779 isoform Q9Y233-1): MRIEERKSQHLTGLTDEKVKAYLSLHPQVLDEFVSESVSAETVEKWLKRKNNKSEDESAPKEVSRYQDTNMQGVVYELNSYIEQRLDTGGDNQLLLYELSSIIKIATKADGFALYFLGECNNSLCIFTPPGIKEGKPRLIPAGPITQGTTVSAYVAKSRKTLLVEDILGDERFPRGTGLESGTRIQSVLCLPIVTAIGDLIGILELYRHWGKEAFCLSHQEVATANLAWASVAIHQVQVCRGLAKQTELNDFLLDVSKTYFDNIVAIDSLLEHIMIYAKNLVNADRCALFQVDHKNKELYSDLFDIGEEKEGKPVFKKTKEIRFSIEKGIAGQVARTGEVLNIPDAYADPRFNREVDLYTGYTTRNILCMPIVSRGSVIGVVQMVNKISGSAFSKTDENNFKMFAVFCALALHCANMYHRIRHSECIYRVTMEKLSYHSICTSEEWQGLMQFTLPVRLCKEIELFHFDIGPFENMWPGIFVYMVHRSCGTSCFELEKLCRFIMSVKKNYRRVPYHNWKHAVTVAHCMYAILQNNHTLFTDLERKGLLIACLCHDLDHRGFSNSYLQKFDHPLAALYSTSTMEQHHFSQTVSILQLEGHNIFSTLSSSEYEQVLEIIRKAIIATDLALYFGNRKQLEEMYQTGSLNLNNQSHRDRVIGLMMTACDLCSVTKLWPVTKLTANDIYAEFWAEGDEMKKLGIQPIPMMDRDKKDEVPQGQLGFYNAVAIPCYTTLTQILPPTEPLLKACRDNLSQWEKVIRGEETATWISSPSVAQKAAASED

IC50 [nM] | SMILES
360 | COc1cc(CNc2nc(-c3ccc(OC)c(OC)c3)nn3c(C)nc(C)c23)cc(OC)c1 [Example 3, N-(3,5-Dimethoxybenzyl)-2-(3,4-dimethoxyphenyl)-5,7-dimethylimidazo[5,1-f]-[1,2,4]triazin-4-amine]
460 | COc1ccc(-c2nc(SCc3cccnc3)c3c(C)nc(C4CCCC4)n3n2)cc1OC [Example 12, 7-Cyclopentyl-2-(3,4-dimethoxyphenyl)-5-methyl-4-[(3-pyridinylmethyl)sulphanyl]-imidazo[5,1-f][1,2,4]triazine]

test system: not given; test: not given; details: not given

melting point [°C] | SMILES
161 | COc1ccc(-c2nc(SCc3cccnc3)c3c(C)nc(C)n3n2)cc1OC [Example 4, 2-(3,4-Dimethoxyphenyl)-5,7-dimethyl-4-[(3-pyridinylmethyl)sulphanyl]imidazo-[5,1-f][1,2,4]triazine]
195 | COc1ccc(Nc2nc(-c3ccc(OC)c(OC)c3)nn3c(C)nc(C)c23)cc1Cl [Example 13, N-(3-Chloro-4-methoxyphenyl)-2-(3,4-dimethoxyphenyl)-5,7-dimethylimidazo [5,1-f][1,2,4]triazin-4-amine]
173 | COc1ccc(-c2nc(Nc3cc(C)c(OC)c(C)c3)c3c(C)nc(C)n3n2)cc1OC [Example 14, 2-(3,4-Dimethoxyphenyl)-N-(4-methoxy-3,5-dimethylphenyl)-5,7-dimethylimidazo-[5,1-f][1,2,4]triazin-4-amine]
180 | COc1ccc(-c2nc(Nc3cc(C)c(OC)c(C)c3)c3c(C)nc(C4CCCC4)n3n2)cc1OC [Example 15, 7-Cyclopentyl-2-(3,4-dimethoxyphenyl)-N-(4-methoxy-3,5-dimethylphenyl)-5-methylimidazo[5,1-f][1,2,4]triazin-4-amine]
188 | COc1ccc(-c2nc(NCc3cc(OC)c(OC)c(OC)c3)c3c(C)nc(C4CCCC4)n3n2)cc1OC [Example 17, 7-Cyclopentyl-2-(3,4-dimethoxyphenyl)-5-methyl-N-(3,4,5-trimethoxybenzyl)-imidazo[5,1-f][1,2,4]triazin-4-amine]
185 | COc1ccc(Nc2nc(-c3ccc(OC)c(OC)c3)nn3c(C4CCCC4)nc(C)c23)cc1 [Example 20, 7-Cyclopentyl-2-(3,4-dimethoxyphenyl)-N-(4-methoxyphenyl)-5-methylimidazo-[5,1-f][1,2,4]triazin-4-amine]
184 | COc1ccc(-c2nc(Oc3cc(OC)c(OC)c(OC)c3)c3c(C)nc(C)n3n2)cc1OC [Example 22, 2-(3,4-Dimethoxyphenyl)-5,7-dimethyl-4-(3,4,5-trimethoxyphenoxy)imidazo[5,1-f]-[1,2,4]triazine]
126 | COc1cccc(Nc2nc(-c3ccc(OC)c(OC)c3)nn3c(C4CCCC4)nc(C)c23)c1 [Example 23, 7-Cyclopentyl-2-(3,4-dimethoxyphenyl)-N-(3-methoxyphenyl)-5-methylimidazo-[5,1-f][1,2,4]triazin-4-amine]
119 | CCc1nc(C2CCCC2)n2nc(-c3ccc(OC)c(S(=O)(=O)N4CCOCC4)c3)nc(Oc3cc(OC)c(OC)c(OC)c3)c12 [Example 25, 7-Cyclopentyl-5-ethyl-2-[4-methoxy-3-(4-morpholinylsulphonyl)phenyl]-4-(3,4,5-trimethoxyphenoxy)imidazo[5,1-f][1,2,4]triazine]
160 | CCc1nc(C2CCCC2)n2nc(-c3ccc(OC)cc3)nc(Nc3cc(OC)c(OC)c(OC)c3)c12 [Example 26, N-[7Cyclopentyl-5-ethyl-2-(4-methoxyphenyl)imidazo[5,1-f][1,2,4]triazin-4-yl]-N-(3,4,5-trimethoxyphenyl)amine]
220 | COc1cc(OC)cc(-c2nc(Oc3cc(OC)c(OC)c(OC)c3)c3c(C)nc(C)n3n2)c1 [Example 27, 2-(3,5-Dimethoxyphenyl)-5,7-dimethyl-4-(3,4,5-trimethoxyphenoxy)imidazo[5,1-f]-[1,2,4]triazine]
199 | COc1cc(Oc2nc(-c3ccc(Br)cc3)nn3c(C)nc(C)c23)cc(OC)c1OC [Example 28, 2-(4-Bromophenyl)-5,7-dimethyl-4-(3,4,5-trimethoxyphenoxy)imidazo[5,1-f]-[1,2,4]triazine]
213 | COc1ccc(-c2nc(Oc3cc(OC)c(OC)c(OC)c3)c3c(C)nc(C)n3n2)cc1Cl [Example 29, 2-(3-Chloro-4-methoxyphenyl)-5,7-dimethyl-4-(3,4,5-trimethoxyphenoxy)imidazo-[5,1-f][1,2,4]triazine]
160 | COc1ccc(-c2nc(Oc3cc(OC)c(OC)c(OC)c3)c3c(C)nc(CC(C)C)n3n2)cc1Cl [Example 30, 2-(3-Chloro-4-methoxyphenyl)-7-isobutyl-5-methyl-4-(3,4,5-trimethoxyphenoxy)-imidazo[5,1-f][1,2,4]triazine]
166 | CCC(CC)c1nc(C)c2c(Oc3cc(OC)c(OC)c(OC)c3)nc(-c3ccc(OC)c(Cl)c3)nn12 [Example 32, 2-(3Chloro-4-methoxyphenyl)-7-(1-ethylpropyl)-5-methyl-4-(3,4,5-trimethoxyphenoxy)imidazo[5,1-f][1,2,4]triazine]
220 to 222 | COc1ccc(-c2nc(Nc3ccc(OC)c(OC)c3)c3c(C)nc(C)n3n2)cc1Cl [Example 33, 2-(3-Chloro-4-methoxyphenyl)-N-(3,4-dimethoxyphenyl)-5,7-dimethylimidazo-[5,1-f][1,2,4]triazin-4-amine]
194 to 195 | COc1ccc(-c2nc(Nc3cc(OC)c(OC)c(OC)c3)c3c(C)nc(C)n3n2)cc1Cl [Example 34, 2-(3-Chloro-4-methoxyphenyl)-N-(3,4,5-trimethoxyphenyl)-5,7-dimethylimidazo-[5,1-f][1,2,4]triazin-4-amine]
188 to 190 | CCOc1ccc(CCNc2nc(-c3ccc(Br)cc3)nn3c(C)nc(C)c23)cc1OC [Example 35, 2-(4-Bromophenyl)-N-[2-(4-ethoxy-3-methoxyphenyl)ethyl]-5,7-dimethylimidazo-[5,1-f][1,2,4]triazin-4-amine]
226 to 228 | CCCc1nc(C)c2c(Sc3ccc(NC(C)=O)cc3)nc(-c3ccccc3OCC)nn12 [Example 36, N-(4-{[2-(2-Ethoxyphenyl)-5-methyl-7-propylimidazo[5,1-f][1,2,4]triazin-4-yl]-sulphanyl}phenyl)acetamide]
96 | CCCc1nc(C)c2c(Nc3cccc(Br)c3)nc(-c3ccccc3OCC)nn12 [Example 39, N-(3-Bromophenyl)-2-(2-ethoxyphenyl)-5-methyl-7-propylimidazo[5,1-f]-[1,2,4]triazin-4-amine]
112 to 114 | CCCc1nc(C)c2c(Nc3cc(OC)c(OC)c(OC)c3)nc(-c3ccccc3OCC)nn12 [Example 44, 2-(2-Ethoxyphenyl)-5-methyl-7-propyl-N-(3,4,5-trimethoxyphenyl)imidazo[5,1-f]-[1,2,4]triazin-4-amine]
98 to 99 | CCCc1nc(C)c2c(NCc3ccc(OC)cc3OC)nc(-c3ccccc3OCC)nn12 [Example 46, N-(2,4-Dimethoxybenzyl)-2-(2-ethoxyphenyl)-5-methyl-7-propylimidazo[5,1-f]-[1,2,4]triazin-4-amine]
119 to 122 | COc1ccc(CNc2nc(-c3ccc(Br)cc3)nn3c(C)nc(C)c23)cc1OC [Example 51, 2-(4-Bromophenyl)-N-(3,4-dimethoxybenzyl)-5,7-dimethylimidazo[5,1-f]-[1,2,4]triazin-4-amine]
176 to 179 | COc1cc(OC)cc(-c2nc(Nc3cc(OC)c(OC)c(OC)c3)c3c(C)nc(C)n3n2)c1 [Example 54, 2-(3,5-Dimethoxyphenyl)-5,7-dimethyl-N-(3,4,5-trimethoxyphenyl)imidazo[5,1-f]-[1,2,4]triazin-4-amine]
153 | CCCc1nc(C)c2c(Oc3cc(OC)c(OC)c(OC)c3)nc(-c3ccccc3OCC)nn12 [Example 101, 2-(2-Ethoxyphenyl)-5-methyl-7-propyl-4-(3,4,5-trimethoxyphenoxy)imidazo[5,1-f]-[1,2,4]triazine]

Source: patent US6936609B2, “Imidazotriazines for use as phosphodiesterase inhibitors” (Bayer HealthCare AG, priority 2001, dated 2005)
